According to patent US8569280B2, “Methods for the treatment of multiple myeloma” (Immune Disease Institute, priority 2005, dated 2013):

How the values were obtained:
5T33mM cells [1] = details: recipient mice treated with inhibitor
Protocol: AMD3100 and PBS is implanted, and the survival rate after 2 hours, 24 hours and 6 days is measured.
5T33mM cells, obtained as described above, are injected into recipient mice.

5T33mM cells [2] = assay: survival and serum IgG2b of mice injected with 5T33mM cells; format: in vivo, mouse; details: subcutaneous osmotic pump, 25 mg/mL, 0.5 μl/hr, 21 days, started at the time of cell injection; versus PBS
Protocol: FIG. 5 is a graph showing the survival of C57BL/6 mice after injection with 10×10^6 5T33^eGFP cells. Osmotic pumps are installed at the time of injection, and either AMD3100 or PBS is implanted. The osmotic pumps are changed every 7 days, and the pump administration is discontinued after 21 days.
AMD3100 is delivered via a subcutaneous osmotic pump at a concentration of 25 mg/mL and a delivery rate of 0.5 μl/hr. The osmotic devices delivered the drug for 21 days.

MM cells = assay: transwell migration assay of MM cells toward SDF-1; format: cell-based
Protocol: AMD3100 was evaluated in amounts of 0-100 μM with all wells containing 20 nM SDF-1 in the lower chambers. […] 10 μM of anti-CXCR4MAB171 antibody inhibited migration to 53%, and 200 μM of MAB171 inhibited migration to 35% compared to a control (P=0.007).
The transwell migration assay was used to test the effect of the CXCR4 inhibitor AMD3100 on the migration of MM cells.
Similarly, the transwell migration assay was used to test the effect of the anti-CXCR 4 antibody MAB171 (10-800 μM) for 16 hours and its IgG2a isotype control on the in vitro migration of MM cells. […] Anti-CXCR4MAB171 inhibited 10 μM migration to 53%, and 200 μM migration to 35% compared with the control (P=0.007).

c1cc(CN2CCCNCCNCCCNCC2)ccc1CN1CCCNCCNCCCNCC1 [AMD3100]
homing of 5T33mM cells to bone marrow (5T33mM cells [1]; 2 hours): does not affect
retention of 5T33mM cells in bone marrow (5T33mM cells [1]; 24 hours): does not affect
proliferation/survival of 5T33mM cells in bone marrow (5T33mM cells [1]; 6 days): significantly reduces
survival of mice injected with 5T33 cells (5T33mM cells [2]): an increase in survival is observed
inhibition at 10 µM (MM cells; 10 μM AMD3100, 16 hours, 20 nM SDF-1 in lower chambers, read-out: inhibition of migration of MM cells compared with control): 70%
dose dependence of inhibition of MM cell migration (MM cells; AMD3100 0-100 μM, MAB171 0-400 μg/mL or 10-800 μM, 16 hours): dose-dependent inhibition of migration
inhibition of migration at doses higher than 10 μM (MM cells; AMD3100 above 10 μM up to 100 μM, 16 hours): did not induce further inhibition of migration
